Test results as given in patent US20230373985A1 (Origenis Gmbh, priority 2020, published 2023).

How the values were obtained:
[1] = target: T1, wt human TYK2, catalytic site (Homo sapiens, UniProt P29597); assay: HTRF KinEASE assay, TYK2; format: biochemical; details: 1 μM ATP; read-out: IC50, Activity Toward TYK2
T1 construct: wt human TYK2, catalytic site; purchased SignalChem
T1 sequence (P29597 897-1176 limits assumed): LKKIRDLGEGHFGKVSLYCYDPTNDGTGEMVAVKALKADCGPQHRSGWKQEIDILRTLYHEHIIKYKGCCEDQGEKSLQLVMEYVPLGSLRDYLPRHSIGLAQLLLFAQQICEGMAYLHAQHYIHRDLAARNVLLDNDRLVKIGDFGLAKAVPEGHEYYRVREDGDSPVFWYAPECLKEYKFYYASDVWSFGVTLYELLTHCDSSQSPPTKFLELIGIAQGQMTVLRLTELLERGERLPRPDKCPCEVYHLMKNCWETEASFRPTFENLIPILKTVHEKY
Protocol: (§1) Basic protocol for HTRF KinEASE assay (Cisbio/FRA) inhibitor studies involved two steps: • Enzymatic step: Addition of 4 μL of test compound in corresponding DMSO dilutions, 4 μL of kinase/substrate mixture, 2 μL of ATP into 384 well small volume plates. Incubation for at least 30 minutes at room temperature. • Detection step: Addition of 5 μL antibody and 5 μL streptavidin-XL665, read plate after 60 minutes. Data analysis of emission ratios according KinEASE assay protocol.
(§2) Kinase and assay components were adjusted to final concentrations according to kit protocol. For TYK2: 2 nM wt human TYK2, catalytic site (SignalChem/CAN), 1 μM HTRF KinEASE-TK Substrate-biotin, 1 μM ATP in 1× Kinase Buffer. For JAK1: 4 nM wt human JAK1, catalytic site (ThermoFisher/USA), 1 μM HTRF KinEASE-TK Substrate-biotin, 2.5 μM ATP in 1× Kinase Buffer. For JAK2: 1 nM wt human JAK2, catalytic site (SignalChem/CAN), 1 μM HTRF KinEASE-TK Substrate-biotin, 100 μM ATP in 1× Kinase Buffer.
as §2

[2] = target: T2, wt human JAK1, catalytic site (Homo sapiens, UniProt P23458); assay: HTRF KinEASE assay, JAK1; format: biochemical; details: 2.5 μM ATP; read-out: IC50, Activity Toward JAK1
T2 construct: wt human JAK1, catalytic site; purchased ThermoFisher
Protocol: as §1
as §2, with “For JAK1: 4 nM wt human JAK1, catalytic site (ThermoFisher/USA), 1 μM HTRF KinEASE-TK Substrate-biotin, 2.5 μM ATP in 1× Kinase Buffer.” left out
as §2, with “For JAK1: 4 nM wt human JAK1, catalytic site (ThermoFisher/USA), 1 μM HTRF KinEASE-TK Substrate-biotin, 2.5 μM ATP in 1× Kinase Buffer.” left out

T2 sequence (P23458 875-1153 limits assumed): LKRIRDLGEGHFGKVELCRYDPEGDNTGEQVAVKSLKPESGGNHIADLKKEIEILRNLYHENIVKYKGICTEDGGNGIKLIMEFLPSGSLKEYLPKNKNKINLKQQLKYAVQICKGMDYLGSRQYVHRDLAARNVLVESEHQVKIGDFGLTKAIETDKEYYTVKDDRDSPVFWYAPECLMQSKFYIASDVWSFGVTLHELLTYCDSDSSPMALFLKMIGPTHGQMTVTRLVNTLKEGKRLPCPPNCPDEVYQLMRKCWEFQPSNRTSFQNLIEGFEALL

| SMILES | IC50 [1] [nM] | IC50 [2] [nM] |
| --- | --- | --- |
| Cn1nnnc1-c1ccc(Nc2cn(-c3c(Cl)cccc3Cl)nc2C(N)=O)cn1 [compound 375, 1-(2,6-dichlorophenyl)-4-((6-(1-methyl-1H-tetrazol-5-yl)pyridin-3-yl)amino)-1H-pyrazole-3-carboxamide] | 10 to 100 | 100 to 1000 |
| Cn1cc(C(F)(F)F)nc1-c1ccc(Nc2cn(-c3c(Cl)cccc3Cl)nc2C(N)=O)cc1 [compound 294, 1-(2,6-dichlorophenyl)-4-((4-(1-methyl-4-(trifluoromethyl)-1H-imidazol-2-yl)phenyl)amino)-1H-pyrazole-3-carboxamide] | < 10 | 10 to 100 |
| NC(=O)c1nn(-c2c(Cl)cccc2Cl)cc1Nc1ccc(-c2nnccc2Cl)cc1 [compound 67, 4-((4-(4-chloropyridazin-3-yl)phenyl)amino)-1-(2,6-dichlorophenyl)-1H-pyrazole-3-carboxamide] | 100 to 1000 | 100 to 1000 |
| Cc1cnncc1-c1ccc(Nc2cn(-c3c(Cl)cccc3Cl)nc2C(N)=O)cn1 [compound 350, 1-(2,6-dichlorophenyl)-4-((6-(5-methylpyridazin-4-yl)pyridin-3-yl)amino)-1H-pyrazole-3-carboxamide] | 100 to 1000 | 100 to 1000 |
| NC(=O)c1nn(-c2c(Cl)cc(F)cc2Cl)nc1Nc1ccc(C(=O)N2CC[C@@H](F)C2)cc1 [compound 146, (R)-2-(2,6-dichloro-4-fluorophenyl)-5-((4-(3-fluoropyrrolidine-1-carbonyl)phenyl)amino)-2H-1,2,3-triazole-4-carboxamide] | 10 to 100 | < 10 |
| Cc1c(C#N)cnn1-c1ccc(Nc2cn(-c3c(Cl)cccc3Cl)nc2C(N)=O)cc1 [compound 253, 4-((4-(4-cyano-5-methyl-1H-pyrazol-1-yl)phenyl)amino)-1-(2,6-dichlorophenyl)-1H-pyrazole-3-carboxamide] | 100 to 1000 | 100 to 1000 |
| NC(=O)c1nn(-c2c(Cl)cccc2Cl)cc1Nc1ccc(-n2ncnc2CO)cc1 [compound 348, 1-(2,6-dichlorophenyl)-4-((4-(5-(hydroxymethyl)-1H-1,2,4-triazol-1-yl)phenyl)amino)-1H-pyrazole-3-carboxamide] | < 10 | 10 to 100 |
| CC(C)Oc1ccc(Nc2cn(-c3c(Cl)cccc3Cl)nc2C(N)=O)cc1 [compound 261, 1-(2,6-dichlorophenyl)-4-((4-isopropoxyphenyl)amino)-1H-pyrazole-3-carboxamide] | 100 to 1000 | 100 to 1000 |
| NC(=O)c1nn(-c2c(Cl)cccc2Cl)nc1Nc1ccc(C(=O)N2CCOCC2)cn1 [compound 140, 2-(2,6-dichlorophenyl)-5-((5-(morpholine-4-carbonyl)pyridin-2-yl)amino)-2H-1,2,3-triazole-4-carboxamide] | 10 to 100 | 100 to 1000 |
| Cn1cc(C(F)(F)F)nc1-c1ccc(Nc2nn(-c3c(Cl)cccc3Cl)nc2C(N)=O)cc1 [compound 115, 2-(2,6-dichlorophenyl)-5-((4-(1-methyl-4-(trifluoromethyl)-1H-imidazol-2-yl)phenyl)amino)-2H-1,2,3-triazole-4-carboxamide] | 10 to 100 | 100 to 1000 |
| CN1CCn2c(nnc2-c2ccc(Nc3cn(-c4c(Cl)cccc4Cl)nc3C(N)=O)cc2)C1 [compound 269, 1-(2,6-dichlorophenyl)-4-((4-(7-methyl-5,6,7,8-tetrahydro-[1,2,4]triazolo[4,3-a]pyrazin-3-yl)phenyl)amino)-1H-pyrazole-3-carboxamide] | 10 to 100 | 10 to 100 |
| Cn1ncc(Nc2cn(-c3c(Cl)cccc3Cl)nc2C(N)=O)n1 [compound 379, 1-(2,6-dichlorophenyl)-4-((2-methyl-2H-1,2,3-triazol-4-yl)amino)-1H-pyrazole-3-carboxamide] | 100 to 1000 | 100 to 1000 |
| CCS(=O)(=O)Nc1ccc(Nc2cn(-c3c(Cl)cccc3Cl)nc2C(N)=O)cc1 [compound 270, 1-(2,6-dichlorophenyl)-4-((4-(ethylsulfonamido)phenyl)amino)-1H-pyrazole-3-carboxamide] | 10 to 100 | 10 to 100 |
| COC(=O)Cn1cc(Nc2cn(-c3c(Cl)cccc3Cl)nc2C(N)=O)cn1 [compound 462, methyl_2-(4-((3-carbamoyl-1-(2,6-dichlorophenyl)-1H-pyrazol-4-yl)amino)-1H-pyrazol-1-yl)acetate] | 100 to 1000 | 10 to 100 |
| Cc1cnnn1-c1ccc(Nc2nn(-c3c(Cl)cccc3Cl)nc2C(N)=O)nc1 [compound 141, 2-(2,6-dichlorophenyl)-5-((5-(5-methyl-1H-1,2,3-triazol-1-yl)pyridin-2-yl)amino)-2H-1,2,3-triazole-4-carboxamide] | 10 to 100 | 10 to 100 |
| Cn1ccc(Nc2cn(-c3c(Cl)cccc3Cl)nc2C(N)=O)cc1=O [compound 381, 1-(2,6-dichlorophenyl)-4-((1-methyl-2-oxo-1,2-dihydropyridin-4-yl)amino)-1H-pyrazole-3-carboxamide] | 100 to 1000 | 100 to 1000 |
| NC(=O)c1nn(-c2c(Cl)cccc2Cl)nc1Nc1ccc(CC(=O)N2CCOCC2)nc1 [compound 151, 2-(2,6-dichlorophenyl)-5-((6-(2-morpholino-2-oxoethyl)pyridin-3-yl)amino)-2H-1,2,3-triazole-4-carboxamide] | 100 to 1000 | 10 to 100 |
| NC(=O)c1nn(-c2c(Cl)cccc2Cl)cc1Nc1ccc(-n2nnc3c2CCCC3)cc1 [compound 73, 1-(2,6-dichlorophenyl)-4-((4-(4,5,6,7-tetrahydro-1H-benzo[d][1,2,3]triazol-1-yl)phenyl)amino)-1H-pyrazole-3-carboxamide] | 10 to 100 | 100 to 1000 |
| NC(=O)c1nn(-c2c(Cl)cccc2Cl)cc1Nc1ccc(C(=O)N2CC(O)C2)cn1 [compound 439, 1-(2,6-dichlorophenyl)-4-((5-(3-hydroxyazetidine-1-carbonyl)pyridin-2-yl)amino)-1H-pyrazole-3-carboxamide] | 100 to 1000 | 10 to 100 |
| NC(=O)c1nn(-c2c(Cl)cccc2Cl)cc1Nc1ccn(-c2ccccn2)n1 [compound 397, 1-(2,6-dichlorophenyl)-4-((1-(pyridin-2-yl)-1H-pyrazol-3-yl)amino)-1H-pyrazole-3-carboxamide] | 100 to 1000 | 100 to 1000 |
| Cc1cnc(C)c(-n2cc(Nc3cn(-c4c(Cl)cccc4Cl)nc3C(N)=O)cn2)n1 [compound 374, 1-(2,6-dichlorophenyl)-4-((1-(3,6-dimethylpyrazin-2-yl)-1H-pyrazol-4-yl)amino)-1H-pyrazole-3-carboxamide] | 100 to 1000 | 100 to 1000 |
| N#Cc1cccc(Cl)c1-n1cc(Nc2ccc(C(=O)N3CCOCC3)cc2)c(C(N)=O)n1 [compound 458, 1-(2-chloro-6-cyanophenyl)-4-((4-(morpholine-4-carbonyl)phenyl)amino)-1H-pyrazole-3-carboxamide] | < 10 | 10 to 100 |
| CN(C)[C@H]1CCN(C(=O)c2ccc(Nc3cn(-c4c(Cl)cccc4Cl)nc3C(N)=O)cn2)C1 [compound 354, (S)-1-(2,6-dichlorophenyl)-4-((6-(3-(dimethylamino)pyrrolidine-1-carbonyl)pyridin-3-yl)amino)-1H-pyrazole-3-carboxamide] | 10 to 100 | 100 to 1000 |
